In US3968214A, “5-Methylthio-pyrimidine vasodilators” (Produits Chimiques Ugine Kuhlmann, priority 1973, dated 1976):
Where two headings read alike, the source gives them in different places.

Legend:
[1] = system: isolated duodenum of rabbit, spasms induced by barium chloride; assay: Spasmolytic activity, musculotrope versus BaCl2, isolated duodenum (Magnus)
Text: (§1) The spasmolytic activities are known by means of the technique of R. Magnus (Arch. Ges. Physiol., 1904, 102, 123) on the isolated duodenum of rabbits. The spasmolytic neurotropes inhibit the contractions of the organ caused by acetylcholine, while the musculotropes prevent the spasms induced by barium chloride. The EC 50 expressed in mg/litre are collected in the following Table where EC denotes "Effective concentration".

[2] = system: isolated duodenum of rabbit, contractions caused by acetylcholine; assay: Spasmolytic activity, neurotrope versus acetylcholine, isolated duodenum (Magnus)
Text: as §1

[3] = Acute toxicity in mice, intravenous and oral (LD50); format: in vivo; details: mouse, in vivo
Text: The acute toxicities of the compounds according to the invention have been determined CD 1 mice (Charles RIVER) by intravenous and oral methods. The LD50 calculated by the quantal cumulative method of J. J. Reed and H. Muench (Amer. J. Hyg. 1938, 27, 493) are collected in the following Table: […]

isolated rabbit heart = assay: Coronaro-dilatatory activity, isolated heart (Langendorff modified by Anderson)
Text: The technique of Langendorff, modified by F. E. Anderson, (J. Pharmacol. exp. Therap., 1948, 91, 135) using isolated rabbit heart permits the coronaro-dilatatory activity of the products to be studied. In this text, the cardiac perfusion liquid contains 0.5 UI/1 of posthypophysis. The results are expressed in the percentage variation of the coronary flow after affusion of the product to be tested, compared with the initial flow.

[4] = intravenous, read-out: Acute toxicity to mice LD 50, intravenous
[5] = oral, read-out: Acute toxicity to mice LD 50, orally

Structure (SMILES) | Spasmolytic activity EC 50, musculotrope versus BaCl2 [1] | LD50 [3, 5] | other results
CCN(CC)CCNc1nc(N(C)C)nc(Cl)c1SC [Example 1, 2-dimethylamino-4-(2'-diethylamine)ethylamino-5-methylthio-6-chloropyrimidine] | 1.40 µg/mL | 200 mg/kg | Spasmolytic activity EC 50, neurotrope versus acetylcholine [2]: 5.50 µg/mL; LD50 [3, 4]: 53 mg/kg
CSc1c(Cl)nc(N(C)C)nc1NCCN(C)C [Example 8, 2-dimethylamino-4-(2'-dimethylamino)-ethylamino-5-methylthio-6-chloro-pyrimidine] | 2.80 µg/mL | 525 mg/kg | Spasmolytic activity EC 50, neurotrope versus acetylcholine [2]: 4.90 µg/mL; LD50 [3, 4]: 57 mg/kg
CSc1c(Cl)nc(N2CCOCC2)nc1NCCN(C)C [Example 9, 2-morpholino-4-(2'-dimethylamino)-ethyl-amino-5-methylthio-6-chloro-pyrimidine] | 1.90 µg/mL | 400 mg/kg | Spasmolytic activity EC 50, neurotrope versus acetylcholine [2]: 3.00 µg/mL
CCOC(=O)CN(C)c1nc(Cl)c(SC)c(NCCN(C(C)C)C(C)C)n1 [Example 15, 2-N-methyl-N-(ethoxycarbonylmethyl)-amino-4-(2'-diisopropylamino)-ethylamino-5-methyl-thio-6-chloro-pyrimidine] | 0.05 µg/mL | > 900 mg/kg | musculotropic EC 50 [1]: less than 0.1 mg/liter; musculotropic spasmolytic activity (in words) [1]: quite remarkable activities; Increase of the coronary flow (isolated rabbit heart; dose 0.003 mg): 16%; Increase of the coronary flow (isolated rabbit heart; dose 0.01 mg): 24%; Increase of the coronary flow (isolated rabbit heart; dose 0.03 mg): 44%; Increase of the coronary flow (isolated rabbit heart; dose 0.10 mg): 28%; coronaro-dilatatory activity (in words) (isolated rabbit heart; isolated rabbit heart): interesting coronaro-dilatatory activities; LD50 [3, 4]: 63 mg/kg
CCN(CC)CCNc1nc(N(C)c2ccc(C)cc2)nc(Cl)c1SC [Example 19, 2-N-methyl-N(4-methyl-phenyl)amino-4-(2'-diethylamino)-ethylamino-5-methyl-thio-6-chloro-pyrimidine] |  | ~675 mg/kg | 
CCN(CC)CCNc1nc(N(C)c2ccc(OC)c(OC)c2)nc(Cl)c1SC [Example 20, 2-N-methyl-N(3,4-dimethoxy-phenyl)amino-4-(2'-diethylamino)-ethylamino-5-methylthio-6-chloro-pyrimidine] |  | 400 mg/kg | 
COc1ccc(N(C)c2nc(Cl)c(SC)c(NCCN(C(C)C)C(C)C)n2)cc1OC [Example 21, 2-N-methyl-N(3,4-dimethoxy-phenyl)amino-4-(2'-diisopropylamino)-ethylamino-5-methylthio-6-chloro-pyrimidine] |  | ~600 mg/kg | 
CSc1c(Cl)nc(N(C)c2ccc(Cl)cc2)nc1NCCN1CC(C)OC(C)C1 (stereo not drawn) [Example 22, 2-N-methyl-N-(4-chloro-phenyl)amino-4-(2'-2,6-dimethyl-morpholino)-ethylamino-5-methylthio-6-chloro-pyrimidine] |  | > 900 mg/kg | 
CCN(CC)CCNc1nc(N(C)c2ccc(Cl)cc2)nc(OC)c1SC [Example 25, 2-N-methyl-N(4-chloro-phenyl)amino-4-(2'-diethylamino)-ethylamino-5-methylthio-6-methoxy-pyrimidine] |  | ~600 mg/kg | 
COc1ccc(N(C)c2nc(NCCN(C(C)C)C(C)C)c(SC)c(OC)n2)cc1OC [Example 28, 2-N-methyl-N-(3,4-dimethoxy-phenyl)-amino-4-(2'-diisopropyl-amino)-ethyl-amino-5-methylthio-6-methoxy-pyrimidine] |  | ~200 mg/kg | 
COc1nc(N2CCCCC2)nc(NCCN(C(C)C)C(C)C)c1SC [Example 29, 2-piperidino-4-(2'-diisopropyl-amino)-ethylamino-5-methylthio-6-methoxy-pyrimidine] |  | ~200 mg/kg | 
CCCCOc1nc(N(C)Cc2ccccc2)nc(NCCN(C(C)C)C(C)C)c1SC [Example 31, 2-N-methyl-2-N-benzylamino-4-(2'-di-isopropyl-amino)-ethylamino-5-methylthio-6-butoxy-pyrimidine] |  | ~675 mg/kg | 
CCCCOc1nc(N(C)c2ccccc2)nc(NCCN(C(C)C)C(C)C)c1SC [Example 32, 2-N-methyl-N-phenylamino-4-(2'-diiso-propyl-amino)-ethylamino-5-methyl-thio-6-butoxy-pyrimidine] |  | ~525 mg/kg | 
